Among the data in PubChem BioAssay (NCI) are TGI values, retold here.

By TGI is commonly meant the concentration giving total growth inhibition. Higher therefore signals less potent growth arrest.

Test systems include SNB-75 CNS; U251 CNS; A498 renal; UACC-257 melanoma; LOX IMVI melanoma; RPMI-8226 leukemia; A549 NSCLC; SF-268 CNS; OVCAR-3 ovarian; UO-31 renal; OVCAR-5 ovarian; ACHN renal; NCI/ADR-RES ovarian; PC-3 prostate; KM12 colon; EKVX NSCLC; MOLT-4 leukemia; K-562 leukemia.
Common to all, as to assay: DTP human tumour cell line panel, 48 h

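Results reflect a 48-hour exposure of cells in 96-well plates to compound at five concentrations. TGI: concentration producing complete growth inhibition.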

Turning to `CC(C)CCNC(=O)c1ccc(CNC(=O)/C=C/c2ccc3ccccc3c2)cc1`, the TGI in the assay on SNB-75 CNS, in the assay on U251 CNS, with A498 renal, in the assay on UACC-257 melanoma, with LOX IMVI melanoma and in the assay with RPMI-8226 leukemia was above 100 µM in each case. Further, the TGI with A549 NSCLC, in the assay with SF-268 CNS, in the assay on OVCAR-3 ovarian, in the assay with UO-31 renal, in the assay on OVCAR-5 ovarian and in the assay with ACHN renal was above 100 µM throughout. Besides, the TGI in the assay with NCI/ADR-RES ovarian, in the assay on PC-3 prostate, in the assay on KM12 colon, with EKVX NSCLC, in the assay with MOLT-4 leukemia and in the assay on K-562 leukemia was above 100 µM each time.
As to `CC1(C)N=C(C(N)=O)c2ncn(Cc3ccccc3)c2N1`, the TGI in the assay on SNB-75 CNS, in the assay with U251 CNS, in the assay with A498 renal, in the assay with UACC-257 melanoma, in the assay on LOX IMVI melanoma and in the assay with RPMI-8226 leukemia was above 100 µM in each case. The TGI in the assay with A549 NSCLC, in the assay with SF-268 CNS, with OVCAR-3 ovarian, with OVCAR-5 ovarian, in the assay on ACHN renal and in the assay with NCI/ADR-RES ovarian was above 100 µM in each case. For the same molecule, the TGI in the assay with PC-3 prostate, in the assay on KM12 colon, with EKVX NSCLC and in the assay with K-562 leukemia was above 100 µM each time.
Turning to `Cn1c2ncccc2n2c(=O)cc(O)cc12`, the TGI in the assay on SNB-75 CNS, with U251 CNS, with A498 renal, in the assay with UACC-257 melanoma, in the assay on LOX IMVI melanoma and in the assay with RPMI-8226 leukemia was above 100 µM each time. Besides, the TGI with A549 NSCLC, in the assay with SF-268 CNS, with OVCAR-3 ovarian, with UO-31 renal, with OVCAR-5 ovarian and with ACHN renal was above 100 µM in each case. Moreover, the TGI in the assay with NCI/ADR-RES ovarian is above 100 µM; in the assay with PC-3 prostate, above 100 µM; in the assay with KM12 colon it was above 100 µM; in the assay on EKVX NSCLC it was above 100 µM; in the assay on MOLT-4 leukemia, 60.1 µM; in the assay with K-562 leukemia, above 100 µM.
As to `O=S(=O)(O)c1c(Cl)c(Cl)c(O)c2ncccc12`, the TGI is 39.3 µM in the assay with SNB-75 CNS; 47.2 µM in the assay on U251 CNS; 26 µM in the assay on A498 renal; 97.6 µM in the assay with UACC-257 melanoma; 7.99 µM in the assay with LOX IMVI melanoma; above 83.6 µM in the assay with RPMI-8226 leukemia. Besides, the TGI is 28.3 µM in the assay with A549 NSCLC; 13.8 µM in the assay with SF-268 CNS; 42.3 µM in the assay on OVCAR-3 ovarian; 22.7 µM with UO-31 renal; 42 µM with OVCAR-5 ovarian; 26.2 µM with ACHN renal. Moreover, the TGI was 49.7 µM with NCI/ADR-RES ovarian; above 59.6 µM with PC-3 prostate; 33.2 µM in the assay on KM12 colon; 41.6 µM in the assay on EKVX NSCLC; 20.1 µM in the assay with MOLT-4 leukemia; above 48.5 µM in the assay with K-562 leukemia.
Turning to `COc1ccc(/C(C)=C2\CCCN(Cc3ccccc3)C2)cc1`, the TGI was 73.1 µM in the assay on SNB-75 CNS; 40.3 µM with U251 CNS; above 100 µM with A498 renal; 86.4 µM with UACC-257 melanoma; 35.3 µM with LOX IMVI melanoma; 47.4 µM in the assay with RPMI-8226 leukemia. In addition, the TGI is 86 µM with A549 NSCLC; 40.6 µM in the assay on SF-268 CNS; 37.4 µM with OVCAR-3 ovarian; 44.1 µM in the assay with UO-31 renal; above 100 µM with OVCAR-5 ovarian; 98.4 µM with ACHN renal. Besides, the TGI was 57.5 µM in the assay with NCI/ADR-RES ovarian; 62.7 µM in the assay with PC-3 prostate; 33.3 µM in the assay on KM12 colon; above 100 µM in the assay on EKVX NSCLC; 59.8 µM in the assay on MOLT-4 leukemia; 63.4 µM with K-562 leukemia.
With `CCCCCN1C(=O)C(Cc2ccccc2)N=C(c2ccc(O)cc2)c2cc(Cl)ccc21` (stereo unspecified), the TGI with SNB-75 CNS was 23.7 µM; in the assay on U251 CNS it was 27.2 µM; in the assay with A498 renal it was above 48.4 µM; with UACC-257 melanoma it was 23.7 µM; with LOX IMVI melanoma it was 18.5 µM; in the assay with RPMI-8226 leukemia, 12.1 µM. In addition, the TGI worked out at 31.7 µM in the assay on A549 NSCLC; 25.3 µM in the assay with SF-268 CNS; 45.1 µM in the assay with OVCAR-3 ovarian; 25.3 µM with UO-31 renal; 48.3 µM in the assay with OVCAR-5 ovarian; 25.9 µM in the assay with ACHN renal. The TGI came out at 25.4 µM in the assay on NCI/ADR-RES ovarian; 27.3 µM in the assay with PC-3 prostate; 30.3 µM in the assay on KM12 colon; 25.6 µM in the assay on EKVX NSCLC; 26.3 µM in the assay on MOLT-4 leukemia; 12.3 µM in the assay on K-562 leukemia.
Regarding `COc1ccccc1N1CCN(S(=O)(=O)c2ccc(Cl)cc2)C1=N`, the TGI in the assay on SNB-75 CNS, with U251 CNS, in the assay with A498 renal, in the assay with UACC-257 melanoma, in the assay with RPMI-8226 leukemia and in the assay with A549 NSCLC was above 100 µM in each case. Further, the TGI in the assay on SF-268 CNS, with OVCAR-3 ovarian, with UO-31 renal, in the assay with OVCAR-5 ovarian, in the assay on ACHN renal and in the assay on NCI/ADR-RES ovarian was above 100 µM throughout. The TGI in the assay with PC-3 prostate, in the assay on KM12 colon, in the assay on EKVX NSCLC, in the assay with MOLT-4 leukemia and with K-562 leukemia was above 100 µM each time.
Take `CSC12c3cc(C)n(-c4ccc(I)cc4)c3CC(C)(C)CN1C(=O)C2Oc1ccccc1` (stereo unspecified): the TGI in the assay on SNB-75 CNS, in the assay on U251 CNS, in the assay with A498 renal, in the assay with UACC-257 melanoma, in the assay with LOX IMVI melanoma and with RPMI-8226 leukemia was above 100 µM in each case. Further, the TGI in the assay with A549 NSCLC, with SF-268 CNS, in the assay with OVCAR-3 ovarian, in the assay with UO-31 renal, in the assay with OVCAR-5 ovarian and in the assay with ACHN renal was above 100 µM throughout. Besides, the TGI with NCI/ADR-RES ovarian, with PC-3 prostate, with KM12 colon, in the assay with EKVX NSCLC, in the assay on MOLT-4 leukemia and in the assay with K-562 leukemia was above 100 µM in each case.
